# Results reported in patent EP1200059B1, “SKIN CARE COMPOSITION” (UNILEVER PLC, priority 1999, dated 2001).
# “Also recorded” adds a separate entry of the source. Like-named read-outs stand apart in the source and are kept apart here.
# Key:
# [1] = system: acyl CoA retinol transferase (ARAT); experiment: in vitro Microsomal Assay of retinol esterification, ARAT catalysed (retinyl palmitate formation)
# Experimental: (§3) A solution containing 0.1M sodium phosphate pH 7 buffer, 5mM dithiothreitol, 2 mg/ml bovine serum albumin, 40 micromolar palmitoyl CoA, 40 micromolar dilauroyl phosphatidyl choline, 10 micromolar retinol and a test compound or solvent blank, was incubated for 1 hour at 37°C with a microsomal fraction isolated from bovine retinal pigment epithelial cells. After incubation, the reaction was quenched by addition of an equal volume of ethanol, and the retinyl esters formed (retinyl palmitate from the ARAT catalysed reaction, and retinyl laurate from the LRAT catalysed reaction) were extracted with hexane.
# [2] = target: T1, lecithin retinol acyl transferase (LRAT) (Bos taurus, UniProt Q9BGL2); experiment: in vitro Microsomal Assay of retinol esterification, LRAT catalysed (retinyl laurate formation); settings: for % INHIBITION, LRAT: Table 6A, 100µM; for % INHIB. LRAT: Table 5
# T1 sequence (Q9BGL2 1-230): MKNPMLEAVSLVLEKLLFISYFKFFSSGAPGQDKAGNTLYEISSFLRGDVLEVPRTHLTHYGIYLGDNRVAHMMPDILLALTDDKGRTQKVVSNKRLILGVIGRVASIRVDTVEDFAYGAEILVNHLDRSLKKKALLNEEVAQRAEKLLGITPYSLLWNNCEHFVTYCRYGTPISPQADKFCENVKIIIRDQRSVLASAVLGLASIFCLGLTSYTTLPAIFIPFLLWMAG
# Experimental: as §3
# [3] = system: LRAT and ARAT catalysed retinol esterification; experiment: in vitro Microsomal Assay, overall verdict on retinol esterification (LRAT and ARAT); settings: verdict on the table results
# Experimental: as §3
# [4] = system: decorin synthesis in human dermal fibroblasts; experiment: Dot blot assay for decorin protein in dermal fibroblast conditioned medium; format: cell-based; settings: 24 hours, relative to vehicle control = 100
# Experimental: (§1) Primary human foreskin fibroblasts at passage 2 (P2) were seeded into 12-well plates at 10000 cells/cm^2 and maintained for 24 hours in an atmosphere of 5% carbon dioxide and 4% oxygen in Dulbeccos Modified Eagles Medium (DMEM) supplemented with 10% foetal calf serum. After this time the cells were washed with serum free DMEM and then incubated in fresh serum free DMEM for a further 60 hours. The fibroblast monolayers were then washed again with serum free DMEM. Test reagents and vehicle controls were added to the cells in triplicate in a final volume of 0.4ml/well fresh serum free DMEM and incubated for a further 24 hours. This fibroblast conditioned medium was either analysed immediately or snap frozen in liquid nitrogen and stored at -70°C for future analysis. The cells were then counted and data from the dot-blot analysis subsequently standardised to cell number. […]
# (§2) At the end of this time the exposed screen was scanned by a phosphorimager (Molecular Dynamics Phosphorimager SF) using ImageQuant™ software. Dot intensity was assessed by computer-assisted image analysis using the quantification tools in ImageQuant™, standardised to cell number and the effects of various test reagents on decorin and procollagen-I synthesis were determined relative to a vehicle treated control value of 100 arbitrary units. […]
# [5] = system: procollagen-I synthesis in human dermal fibroblasts; experiment: Dot blot assay for procollagen-I protein in dermal fibroblast conditioned medium; format: cell-based; settings: 24 hours, control = 100%
# Experimental: as §1, §2
compound,measurement,setting,value
CC(C)=CCCC(C)=CCCC(C)=CCO [Farnesol],% INHIB. ARAT,"[1]; Table 8, 10 µM",20%
same,% INHIB. ARAT,"[1]; Table 8, 100 µM",43%
same,inhibition at 10 µM,[2]; read-out: % INHIB. LRAT,10%
same,inhibition at 100 µM,[2]; read-out: % INHIB. LRAT,43%
same,retinol esterification inhibition (result in words),[3],inhibit retinol esterification
CC(C)=CCC/C(C)=C/CC/C(C)=C/CC/C(C)=C/CO [Geranyl Geraniol],% INHIB. ARAT,"[1]; Table 8, 10 µM",38%
same,% INHIB. ARAT,"[1]; Table 8, 100 µM",81%
same,inhibition at 10 µM,[2]; read-out: % INHIB. LRAT,16%
same,inhibition at 100 µM,[2]; read-out: % INHIB. LRAT,77%
same,retinol esterification inhibition (result in words),[3],inhibit retinol esterification; also recorded: potent inhibitor of retinol esterification
O=C(NCO)N(CO)C1(CO)C(=O)NC(=O)N1CO (centres unmarked) [diazolidinyl urea],% INHIB. ARAT,"[1]; Table 5, 100 μM",0%
same,inhibition at 100 µM,[2]; read-out: % INHIB. LRAT,0%
Cc1ccc(C(C)C)c(O)c1 [Thymol],"% INHIBITION, ARAT","[1]; Table 7, 100 µM",0%
same,inhibition at 100 µM,"[2]; read-out: % INHIBITION, LRAT",0%
Nc1ncnc2nc[nH]c12 [adenine],% INHIB. ARAT,"[1]; Table 5, 100 μM",0%
same,inhibition at 100 µM,[2]; read-out: % INHIB. LRAT,0%
C=C(C)C1CC=C(C)C(=O)C1 (centres unmarked) [Carvone],"% INHIBITION, ARAT","[1]; Table 7, 100 µM",0%
same,inhibition at 100 µM,"[2]; read-out: % INHIBITION, LRAT",0%
CC(C)[C@@H]1CC[C@@H](C)CC1=O [Mentone],inhibition at 100 µM,"[2]; read-out: % INHIBITION, LRAT",0%
CC12CCC(C1)C(C)(C)C2O (centres unmarked) [Fenchyl alcohol],"% INHIBITION, ARAT","[1]; Table 7, 100 µM",12%
O=c1cc[nH]c(=O)[nH]1 [uracil],% INHIB. ARAT,"[1]; Table 5, 100 μM",0%
same,inhibition at 100 µM,[2]; read-out: % INHIB. LRAT,0%
Cc1ncc(C[n+]2csc(CCO)c2C)c(N)n1 [thiamine],% INHIB. ARAT,"[1]; Table 5, 100 μM",0%
same,inhibition at 100 µM,[2]; read-out: % INHIB. LRAT,0%
COc1cc(C=O)ccc1O [Vanillin],"% INHIBITION, ARAT","[1]; Table 7, 100 µM",0%
same,inhibition at 100 µM,"[2]; read-out: % INHIBITION, LRAT",0%
CC1=CCCC(C)(C)C1/C=C/C(=O)CC(C)C (centres unmarked) [Isobutyl ionone],"% INHIBITION, LRAT",[2],45%
C/C=C/C(=O)C1=C(C)C=CCC1(C)C [Damascenone],inhibition at 10 µM,"[2]; read-out: % INHIBITION, LRAT",29%
same,inhibition at 100 µM,"[2]; read-out: % INHIBITION, LRAT",79%
disodium cocamphodiacetate,% INHIB. LRAT,[2]; 100 μM,0%
Sandalone,"% INHIBITION, ARAT","[1]; Table 6A, 100µM",23%
same,"% INHIBITION, LRAT",[2],12%
CC1=CCC(CCC(C)CO)C1(C)C (centres unmarked) [Brahmanol],"% INHIBITION, ARAT","[1]; Table 6A, 100µM",70%
same,inhibition at 100 µM,"[2]; read-out: % INHIBITION, LRAT",75%
CC(=O)c1cc2c(cc1C)C(C)(C)[C@H](C)[C@H]2C(C)C [Traseolide],"% INHIBITION, ARAT","[1]; Table 6A, 100µM",41%
Ceramide 6,Decorin,[4]; 0.01 µM Ceramide 6,101.2%
CC(=O)/C(C)=C/C1C(C)=CCCC1(C)C (centres unmarked) [Gamma methyl ionone],"% INHIBITION, LRAT",[2],38%
CC(=O)CCC1C(C)=CCCC1(C)C (stereo not drawn) [Dihydro alpha ionone],"% INHIBITION, ARAT","[1]; Table 7, 100 µM",13%
N[C@@H](Cc1c[nH]c2ccccc12)C(=O)O [tryptophan],% INHIB. ARAT,"[1]; Table 5, 100 μM",0%
same,inhibition at 100 µM,[2]; read-out: % INHIB. LRAT,0%
C/C=C/C(=O)C1C(C)C=CCC1(C)C (centres unmarked) [Delta damascone],inhibition at 10 µM,"[2]; read-out: % INHIBITION, LRAT",64%
same,inhibition at 100 µM,"[2]; read-out: % INHIBITION, LRAT",95%
CC=CC(=O)C1CCC(C)(C)C=C1C (centres unmarked) [Isodamascone],"% INHIBITION, ARAT","[1]; Table 6A, 100µM",80%
same,"% INHIBITION, LRAT",[2],92%
"CCCCC/C=C\C/C=C\CCCCCCCC(=O)N(CCO)CCO [Linoleamide-DEA (LODEA), Linoleamide-DEA]",inhibition at 10 µM,[2]; read-out: % INHIB. LRAT,11%
same,inhibition at 100 µM,[2]; read-out: % INHIB. LRAT,51%
same,retinol esterification inhibition (result in words),[3],potent retinol esterification inhibitors
CC1=CC(C)C(CO)C(C)C1 (centres unmarked) [Isocyclogeraniol],"% INHIBITION, ARAT","[1]; Table 7, 100 µM",18%
same,inhibition at 100 µM,"[2]; read-out: % INHIBITION, LRAT",16%
CC12CCC(CC1=O)C2(C)C (centres unmarked) [Camphor],"% INHIBITION, ARAT","[1]; Table 7, 100 µM",0%
same,inhibition at 100 µM,"[2]; read-out: % INHIBITION, LRAT",0%
CC(=O)c1cc2c(cc1C)C(C)(C)C(C)CC2(C)C (centres unmarked) [Tonalid],"% INHIBITION, ARAT","[1]; Table 6A, 100µM",50%
same,inhibition at 100 µM,"[2]; read-out: % INHIBITION, LRAT",33%
CC1=CCCC(C)(C)C1/C=C/C(C)O (stereo not drawn) [Alpha ionol],inhibition at 100 µM,"[2]; read-out: % INHIBITION, LRAT",0%
conjugated linoleic acid [CLA],Procollagen 1,[5]; 0.1 µM CLA,78.9%
same,Decorin,[4]; 0.1 µM CLA,96.8%
CCCCCCCCCCCCC/C=C/[C@@H](O)[C@H](CO)NC(C)=O [Acetyl Sphingosine],% INHIB. ARAT,"[1]; Table 5, 10 μM",19%
same,% INHIB. ARAT,"[1]; Table 5, 100 μM",62%
same,% INHIB. LRAT,[2]; 10 μM,10%
same,% INHIB. LRAT,[2]; 100 μM,50%
same,retinol esterification inhibition (result in words),[3],potent retinol esterification inhibitors
CC12CCC(CC1)C(C)(C)O2 [Eucalyptol],"% INHIBITION, ARAT","[1]; Table 7, 100 µM",0%
same,inhibition at 100 µM,"[2]; read-out: % INHIBITION, LRAT",0%
CCC(=O)/C=C/C1C(C)=CCCC1(C)C (stereo not drawn) [Alpha methyl ionone],"% INHIBITION, ARAT","[1]; Table 6A, 100µM",67%
same,"% INHIBITION, LRAT",[2],77%
CCOC(=O)C1=C(C)C=CCC1(C)C [Ethyl saffranate],"% INHIBITION, LRAT",[2],49%
Sandanol,"% INHIBITION, ARAT","[1]; Table 6A, 100µM",15%
same,"% INHIBITION, LRAT",[2],43%
"CC1=C(/C=C/C(C)=C/C=C/C(C)=C/C(=O)O)C(C)(C)CCC1 [trans Retinoic acid, reference compound]",Procollagen 1,[5]; 0.01 µM trans Retinoic acid,102.8%
C/C=C/C(=O)C1=C(C)CCCC1(C)C [Beta damascone],inhibition at 10 µM,"[2]; read-out: % INHIBITION, LRAT",52%
same,inhibition at 100 µM,"[2]; read-out: % INHIBITION, LRAT",92%
CC1=C(/C=C/C(C)O)C(C)(C)CCC1 (stereo not drawn) [Beta ionol],inhibition at 100 µM,"[2]; read-out: % INHIBITION, LRAT",0%
O=CC=Cc1ccccc1 [Cinnamaldehyde],"% INHIBITION, ARAT","[1]; Table 7, 100 µM",0%
same,inhibition at 100 µM,"[2]; read-out: % INHIBITION, LRAT",0%
"CCCCC/C=C\C/C=C\CCCCCCCC(=O)NCCO [Linoleamide-MEA (LOMEA), Linoleamide-MEA]",retinol esterification inhibition (result in words),[3],potent retinol esterification inhibitors
CC=CC(=O)C1C(C)=CCCC1(C)C (stereo not drawn) [alpha damascone],"% INHIBITION, ARAT","[1]; Table 6A, 100µM",83%
same,"% INHIBITION, ARAT","[1]; Table 6B, 10µM",67%
same,inhibition at 10 µM,"[2]; read-out: % INHIBITION, LRAT",87%
same,inhibition at 100 µM,"[2]; read-out: % INHIBITION, LRAT",98%
CC(C)(O)CCCC1=CCC(C=O)CC1 (centres unmarked) [Lyral],"% INHIBITION, ARAT","[1]; Table 6A, 100µM",76%
